Experimental data as given in the supplement of paper PMC10307832.

Key:
Experiment in all cases: relative viability (nuclei count vs DMSO), 5 days (fraction); higher = more cells survive
[1] = system: NCI-H2342
Outline: (§1)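 One day after seeding in 1536-well plates, lung cancer cell lines were dosed by pin tool. Dosing was either single-drug or a fixed anchor-drug dose plus five library-drug doses (not always all listed) in √10 steps. After 5 days, nuclei were stained in one fix-and-stain step and counted on 4× images, and relative viability is the nuclei count of treated wells over that of vehicle wells, given as the median of duplicate plates.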

[2] = system: HOP-62
Outline: as §1

[3] = system: NCI-H23
Outline: as §1

[4] = system: NCI-H460
Outline: as §1

[5] = system: 201T
Outline: as §1

[6] = system: COR-L23
Outline: as §1

[7] = system: LC-2-ad
Outline: as §1

[8] = system: NCI-H2087
Outline: as §1

[9] = system: NCI-H322M
Outline: as §1

[10] = system: NCI-H1944
Outline: as §1

[11] = system: NCI-H2009
Outline: as §1

[12] = system: PC-3 [JPC-3]
Outline: as §1

[13] = system: ChaGo-K-1
Outline: as §1

[14] = system: NCI-H727
Outline: as §1

[15] = system: NCI-H1651
Outline: as §1

[16] = system: NCI-H2126
Outline: as §1

[17] = system: NCI-H1355
Outline: as §1

[18] = system: NCI-H1666
Outline: as §1

[19] = system: ABC-1
Outline: as §1

[20] = system: CAL-12T
Outline: as §1

[21] = system: SW 1573
Outline: as §1

[22] = system: NCI-H661
Outline: as §1

[23] = system: NCI-H596
Outline: as §1

`Oc1nc(-c2ccc(C(F)(F)F)cc2)nc2c1CSCC2` [XAV939] + CC(=O)c1c(C)c2cnc(Nc3ccc(N4CCNCC4)cn3)nc2n(C2CCCC2)c1=O [Palbociclib] (partner 0.5 µM) gave a relative viability ([1]; first compound 0.08 µM) of 0.555, a relative viability ([1]; first compound 0.253 µM) of 0.464 and a relative viability ([1]; first compound 0.8 µM) of 0.468. For the same compound, the relative viability ([1]; first compound 2.53 µM) was 0.467, the relative viability ([2]; first compound 0.08 µM) was 0.467 and the relative viability ([2]; first compound 0.253 µM) was 0.4. It also gave a relative viability ([2]; first compound 0.8 µM) of 0.378, a relative viability ([2]; first compound 2.53 µM) of 0.313 and a relative viability ([3]; first compound 0.08 µM) of 0.529. It also gave a relative viability ([3]; first compound 0.8 µM) of 0.465, a relative viability ([3]; first compound 2.53 µM) of 0.386 and a relative viability ([4]; first compound 0.08 µM) of 0.223. The relative viability ([4]; first compound 0.253 µM) was 0.177, the relative viability ([4]; first compound 0.8 µM) was 0.12 and the relative viability ([4]; first compound 2.53 µM) was 0.0927. It also gave a relative viability ([5]; first compound 0.08 µM) of 0.362, a relative viability ([5]; first compound 0.253 µM) of 0.315 and a relative viability ([5]; first compound 0.8 µM) of 0.338. It also gave a relative viability ([5]; first compound 2.53 µM) of 0.3, a relative viability ([6]; first compound 0.08 µM) of 0.291 and a relative viability ([6]; first compound 0.253 µM) of 0.261. For the same compound, the relative viability ([6]; first compound 0.8 µM) was 0.237, the relative viability ([6]; first compound 2.53 µM) was 0.249 and the relative viability ([7]; first compound 0.08 µM) was 0.502. The relative viability ([7]; first compound 0.253 µM) was 0.397, the relative viability ([7]; first compound 0.8 µM) was 0.462 and the relative viability ([7]; first compound 2.53 µM) was 0.478. For the same compound, the relative viability ([8]; first compound 0.08 µM) was 0.325, the relative viability ([8]; first compound 0.253 µM) was 0.182 and the relative viability ([8]; first compound 0.8 µM) was 0.224. For the same compound, the relative viability ([8]; first compound 2.53 µM) was 0.164, the relative viability ([9]; first compound 0.08 µM) was 0.521 and the relative viability ([9]; first compound 0.253 µM) was 0.464. The relative viability ([9]; first compound 0.8 µM) was 0.456, the relative viability ([9]; first compound 2.53 µM) was 0.433 and the relative viability ([10]; first compound 0.08 µM) was 0.347. For the same compound, the relative viability ([10]; first compound 0.253 µM) was 0.337, the relative viability ([10]; first compound 0.8 µM) was 0.34 and the relative viability ([10]; first compound 2.53 µM) was 0.267. The relative viability ([11]; first compound 0.08 µM) was 0.275, the relative viability ([11]; first compound 0.253 µM) was 0.239 and the relative viability ([11]; first compound 0.8 µM) was 0.188. It also gave a relative viability ([11]; first compound 2.53 µM) of 0.317, a relative viability ([12]; first compound 0.253 µM) of 0.5 and a relative viability ([12]; first compound 0.8 µM) of 0.523. It also gave a relative viability ([12]; first compound 2.53 µM) of 0.485, a relative viability ([13]; first compound 0.08 µM) of 0.99 and a relative viability ([13]; first compound 0.253 µM) of 0.925. It also gave a relative viability ([13]; first compound 0.8 µM) of 0.915, a relative viability ([13]; first compound 2.53 µM) of 0.887 and a relative viability ([14]; first compound 0.08 µM) of 0.711. For the same compound, the relative viability ([14]; first compound 0.8 µM) was 0.642, the relative viability ([14]; first compound 2.53 µM) was 0.644 and the relative viability ([15]; first compound 0.08 µM) was 0.566. It also gave a relative viability ([15]; first compound 0.253 µM) of 0.521, a relative viability ([15]; first compound 0.8 µM) of 0.529 and a relative viability ([15]; first compound 2.53 µM) of 0.462. It also gave a relative viability ([16]; first compound 0.08 µM) of 0.301, a relative viability ([16]; first compound 0.253 µM) of 0.352 and a relative viability ([16]; first compound 0.8 µM) of 0.35. It also gave a relative viability ([16]; first compound 2.53 µM) of 0.336, a relative viability ([17]; first compound 0.08 µM) of 0.401 and a relative viability ([17]; first compound 0.253 µM) of 0.319. It also gave a relative viability ([17]; first compound 0.8 µM) of 0.351, a relative viability ([17]; first compound 2.53 µM) of 0.282 and a relative viability ([18]; first compound 0.08 µM) of 0.678. It also gave a relative viability ([18]; first compound 0.253 µM) of 0.552, a relative viability ([18]; first compound 0.8 µM) of 0.623 and a relative viability ([18]; first compound 2.53 µM) of 0.64. The relative viability ([19]; first compound 0.253 µM) was 0.587, the relative viability ([19]; first compound 0.8 µM) was 0.578 and the relative viability ([19]; first compound 2.53 µM) was 0.343. The relative viability ([20]; first compound 0.08 µM) was 0.465, the relative viability ([20]; first compound 0.253 µM) was 0.342 and the relative viability ([20]; first compound 0.8 µM) was 0.263. For the same compound, the relative viability ([20]; first compound 2.53 µM) was 0.209, the relative viability ([21]; first compound 0.08 µM) was 0.414 and the relative viability ([21]; first compound 0.253 µM) was 0.3. For the same compound, the relative viability ([21]; first compound 0.8 µM) was 0.326, the relative viability ([21]; first compound 2.53 µM) was 0.279 and the relative viability ([22]; first compound 0.08 µM) was 0.407. For the same compound, the relative viability ([22]; first compound 0.253 µM) was 0.394, the relative viability ([22]; first compound 0.8 µM) was 0.409 and the relative viability ([22]; first compound 2.53 µM) was 0.388.
In the case of `Oc1nc(-c2ccc(C(F)(F)F)cc2)nc2c1CSCC2` [XAV939] + Nc1ncn([C@H]2C[C@H](O)[C@@H](CO)O2)c(=O)n1 [Decitabine] (partner 2 µM), the relative viability ([1]; first compound 0.08 µM) is reported as 0.832, the relative viability ([1]; first compound 0.253 µM) is reported as 0.669 and the relative viability ([1]; first compound 0.8 µM) is reported as 0.72. For the same compound, the relative viability ([1]; first compound 2.53 µM) was 0.427, the relative viability ([2]; first compound 0.08 µM) was 0.226 and the relative viability ([2]; first compound 0.253 µM) was 0.193. For the same compound, the relative viability ([2]; first compound 0.8 µM) was 0.223, the relative viability ([2]; first compound 2.53 µM) was 0.157 and the relative viability ([3]; first compound 0.08 µM) was 0.312. It also gave a relative viability ([3]; first compound 0.8 µM) of 0.32, a relative viability ([3]; first compound 2.53 µM) of 0.273 and a relative viability ([4]; first compound 0.08 µM) of 0.599. The relative viability ([4]; first compound 0.253 µM) was 0.443, the relative viability ([4]; first compound 0.8 µM) was 0.501 and the relative viability ([4]; first compound 2.53 µM) was 0.458. The relative viability ([5]; first compound 0.08 µM) was 0.87, the relative viability ([5]; first compound 0.253 µM) was 0.901 and the relative viability ([5]; first compound 0.8 µM) was 0.779. For the same compound, the relative viability ([5]; first compound 2.53 µM) was 0.788, the relative viability ([6]; first compound 0.08 µM) was 0.444 and the relative viability ([6]; first compound 0.253 µM) was 0.414. The relative viability ([6]; first compound 0.8 µM) was 0.424, the relative viability ([6]; first compound 2.53 µM) was 0.378 and the relative viability ([7]; first compound 0.08 µM) was 0.786. It also gave a relative viability ([7]; first compound 0.253 µM) of 0.719, a relative viability ([7]; first compound 0.8 µM) of 0.872 and a relative viability ([7]; first compound 2.53 µM) of 0.733. The relative viability ([8]; first compound 0.08 µM) was 0.28, the relative viability ([8]; first compound 0.253 µM) was 0.297 and the relative viability ([8]; first compound 0.8 µM) was 0.302. The relative viability ([8]; first compound 2.53 µM) was 0.243, the relative viability ([9]; first compound 0.08 µM) was 0.684 and the relative viability ([9]; first compound 0.253 µM) was 0.619. For the same compound, the relative viability ([9]; first compound 0.8 µM) was 0.653, the relative viability ([9]; first compound 2.53 µM) was 0.566 and the relative viability ([10]; first compound 0.08 µM) was 0.424. For the same compound, the relative viability ([10]; first compound 0.253 µM) was 0.439, the relative viability ([10]; first compound 0.8 µM) was 0.44 and the relative viability ([10]; first compound 2.53 µM) was 0.403. It also gave a relative viability ([11]; first compound 0.08 µM) of 0.515, a relative viability ([11]; first compound 0.253 µM) of 0.359 and a relative viability ([11]; first compound 0.8 µM) of 0.405. For the same compound, the relative viability ([11]; first compound 2.53 µM) was 0.336, the relative viability ([12]; first compound 0.253 µM) was 0.724 and the relative viability ([12]; first compound 0.8 µM) was 0.837. For the same compound, the relative viability ([12]; first compound 2.53 µM) was 0.784, the relative viability ([13]; first compound 0.08 µM) was 0.495 and the relative viability ([13]; first compound 0.253 µM) was 0.505. It also gave a relative viability ([13]; first compound 0.8 µM) of 0.507, a relative viability ([13]; first compound 2.53 µM) of 0.494 and a relative viability ([14]; first compound 0.08 µM) of 0.805. The relative viability ([14]; first compound 0.8 µM) was 0.934, the relative viability ([14]; first compound 2.53 µM) was 0.653 and the relative viability ([15]; first compound 0.08 µM) was 0.606. It also gave a relative viability ([15]; first compound 0.253 µM) of 0.399, a relative viability ([15]; first compound 0.8 µM) of 0.625 and a relative viability ([15]; first compound 2.53 µM) of 0.426. The relative viability ([16]; first compound 0.08 µM) was 0.559, the relative viability ([16]; first compound 0.253 µM) was 0.537 and the relative viability ([16]; first compound 0.8 µM) was 0.595. For the same compound, the relative viability ([16]; first compound 2.53 µM) was 0.481, the relative viability ([23]; first compound 0.08 µM) was 1 and the relative viability ([23]; first compound 0.253 µM) was 0.976. The relative viability ([23]; first compound 0.8 µM) was 1.03, the relative viability ([23]; first compound 2.53 µM) was 0.928 and the relative viability ([17]; first compound 0.08 µM) was 0.357. For the same compound, the relative viability ([17]; first compound 0.253 µM) was 0.309, the relative viability ([17]; first compound 0.8 µM) was 0.393 and the relative viability ([17]; first compound 2.53 µM) was 0.298. For the same compound, the relative viability ([18]; first compound 0.08 µM) was 0.747, the relative viability ([18]; first compound 0.253 µM) was 0.674 and the relative viability ([18]; first compound 0.8 µM) was 0.678. It also gave a relative viability ([18]; first compound 2.53 µM) of 0.531, a relative viability ([19]; first compound 0.253 µM) of 1.27 and a relative viability ([19]; first compound 0.8 µM) of 0.975. The relative viability ([19]; first compound 2.53 µM) was 0.655, the relative viability ([21]; first compound 0.08 µM) was 0.559 and the relative viability ([21]; first compound 0.253 µM) was 0.436. It also gave a relative viability ([21]; first compound 0.8 µM) of 0.437, a relative viability ([21]; first compound 2.53 µM) of 0.453 and a relative viability ([22]; first compound 0.08 µM) of 0.542. It also gave a relative viability ([22]; first compound 0.253 µM) of 0.493, a relative viability ([22]; first compound 0.8 µM) of 0.544 and a relative viability ([22]; first compound 2.53 µM) of 0.509.
